From patent US7612113B2, “Hydroxy tetrahydro-naphthalenylurea derivatives” (Xention Limited, priority 2002, dated 2009)
Like-named read-outs stand apart in the source and are kept apart here.

Tests used:
[1] = target: T1, human VR1 (Homo sapiens, UniProt Q8NER1); assay: capsaicin-induced Ca2+ influx in the human VR1-transfected CHO cell line (Assay 1); assay type: cell-based; settings: 10 nM capsaicin, human VR1-CHOluc9aeq cells, read-out: activity class
T1 construct: expressed in transfected cells
T1 sequence (Q8NER1 whole entry): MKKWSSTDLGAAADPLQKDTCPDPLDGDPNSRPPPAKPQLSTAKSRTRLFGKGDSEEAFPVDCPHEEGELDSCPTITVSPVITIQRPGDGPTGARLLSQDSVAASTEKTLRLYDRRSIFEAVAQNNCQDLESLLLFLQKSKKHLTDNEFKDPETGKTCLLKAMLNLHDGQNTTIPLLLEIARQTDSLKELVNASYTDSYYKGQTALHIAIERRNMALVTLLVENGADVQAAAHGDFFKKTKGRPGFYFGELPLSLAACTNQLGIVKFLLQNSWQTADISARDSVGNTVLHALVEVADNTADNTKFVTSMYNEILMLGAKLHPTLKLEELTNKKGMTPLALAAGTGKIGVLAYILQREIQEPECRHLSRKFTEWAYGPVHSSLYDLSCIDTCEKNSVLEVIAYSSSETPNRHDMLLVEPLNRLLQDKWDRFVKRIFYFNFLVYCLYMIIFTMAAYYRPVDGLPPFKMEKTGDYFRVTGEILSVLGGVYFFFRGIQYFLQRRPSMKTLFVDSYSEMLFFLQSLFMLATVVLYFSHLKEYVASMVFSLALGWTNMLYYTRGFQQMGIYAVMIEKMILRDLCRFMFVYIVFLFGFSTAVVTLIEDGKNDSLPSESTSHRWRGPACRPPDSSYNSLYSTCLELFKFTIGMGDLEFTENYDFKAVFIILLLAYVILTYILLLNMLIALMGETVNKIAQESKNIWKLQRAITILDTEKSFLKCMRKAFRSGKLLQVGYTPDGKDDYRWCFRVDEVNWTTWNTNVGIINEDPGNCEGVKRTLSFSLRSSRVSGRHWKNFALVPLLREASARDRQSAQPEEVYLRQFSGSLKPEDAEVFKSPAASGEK
Description: [Measurement of capsaicin-induced Ca^2+ influx in the human VR1-transfected CHO cell line] (Assay 1)
• (1) Establishment of the Human VR1-CHOluc9aeq Cell Line • Human vanilloid receptor (hVR1) cDNA was cloned from libraries of axotomized dorsal root ganglia (WO 00/29577). The cloned hVR1 cDNA was constructed with pcDNA3 vector and transfected into a CHOluc9aeq cell line. The cell line contains aequorin and CRE-luciferase reporter genes as read-out signals. The transfectants were cloned by limiting dilution in selection medium (DMEM/F12 medium (Gibco BRL) supplemented with 10% FCS, 1.4 mM Sodium pyruvate, 20 mM HEPES, 0.15% Sodium bicarbonate, 100 U/ml penicillin, 100 μg/ml streptomycin, 2 mM glutamine, non-essential amino acids and 2 mg/ml G418). Ca^2+ influx was examined in the capsaicin-stimulated clones. A high responder clone was selected and used for further experiments in the project. The human VR1-CHOluc9aeq cells were maintained in the selection medium and passaged every 3-4 days at 1-2.5×10^5 cells/flask ([…]). • (2) Measurement of Ca^2+ Influx Using FDSS-3000 • Human VR1-CHOluc9aeq cells were suspended in a culture medium which is the same as the selection medium except for G418 and seeded at a density of 1,000 cells per well into 384-well plates (black walled clear-base/Nalge Nunc International). Following the culture for 48 hrs the medium was changed to 2 μM Fluo-3 AM (Molecular Probes) and 0.02% Puronic F-127 in assay buffer (Hank's balanced salt solution (HBSS), 17 mM HEPES (pH7.4), 1 mM Probenecid, 0.1% BSA) and the cells were incubated for 60 min at. 25° C. After washing twice with assay buffer the cells were incubated with a test compound or vehicle for 20 min at 25° C. Mobilization of cytoplasmic Ca^2+ was measured by FDSS-3000 (λex=488 nm, λem=540 nm/Hamamatsu Photonics) for 60 sec after the stimulation with 10 nM capsaicin. Integral R was calculated and compared with controls. [Measurement of the Capsaicin-Induced Ca^2+ Influx in Primary Cultured Rat Dorsal Root Ganglia Neurons] (Assay 2) • (1) Preparation of Rat Dorsal Root Ganglia Neurons • New born Wister rats (5-11 days) were sacrificed and dorsal root ganglia (DRG) was removed. DRG was incubated with 0.1% trypsin (Gibco BRL) in PBS(−) (Gibco BRL) for 30 min at 37° C., then a half volume of fetal calf serum (FCS) was added and the cells were spun down. The DRG neuron cells were resuspended in Ham F12/5% FCS/5% horse serum (Gibco BRL) and dispersed by repeated pipetting and passing through 70 μm mesh Falcon). The culture plate was incubated for 3 hours at 37° C. to remove contaminating Schwann cells. Non-adherent cells were recovered and further cultured in laminin-coated 384 well plates (Nunc) at 1×10^4 cells/50 μl/well for 2 days in the presence of 50 ng/ml recombinant rat NGF (Sigma) and 50 μM 5-fluorodeoxyuridine (Sigma). • (2) Ca^2+ Mobilization Assay • DRG neuron cells were washed twice with HBSS supplemented with 17 mM HEPES (pH 7.4) and 0.1% BSA. After incubating with 2 μM fluo-3AM (Molecular Probe), 0.02% PF127 (Gibco BRL) and 1 mM probenecid (Sigma) for 40 min at 37° C., cells were washed 3 times. The cells were incubated with VR1 antagonists or vehicle (dimethylsulphoxide) and then with 1 μM capsaicin in FDSS-6000 (λex=480 nm, λem=520 nm/Hamamatsu Photonics). The fluorescence changes at 480 nm were monitored for 2.5 min. Integral R was calculated and compared with controls. [Organ Bath Assay to Measure the Capsaicin-Induced Bladder Contraction] (Assay 3)
The data corresponds to the compounds as yielded by solid phase synthesis and thus to levels of purity of about 40 to 90%. For practical reasons, the compounds are grouped in four classes of activity as follows: IC50=A(<or=)0.1 μM<B(<or=)0.5 μM<C(<or=)1 μM<D

IC50 ([1]; Table 1) [nM] | melting point [°C] | IC50 ([1]; Table 3) [nM] | SMILES
500 to 1000 | 217 to 219 |  | O=C(Nc1ccccc1C(F)(F)F)Nc1cccc2c1CC(O)CC2 (stereo not shown) [Example 2-7]
 | 196 to 197 | 100 to 500 | O=C(Nc1ccccc1Br)Nc1cccc2c1CC(O)CC2 (stereo not shown) [Example 5-4]

The remaining lines, values behind:

SMILES | IC50 ([1]; Table 1) [nM] | melting point [°C] | IC50 ([1]; Table 3) [nM]
O=C(Nc1cccc(OC(F)(F)F)c1)Nc1cccc2c1CC(O)CC2 (stereo not shown) [Example 5-11] |  | 203 to 204 | < 100
COc1ccc(NC(=O)Nc2cccc3c2CC(O)CC3)cc1 (stereo not shown) [Example 2-6] | > 1000 | 213 to 215 | 
Cc1ccc(NC(=O)Nc2ccc(Cl)c(C(F)(F)F)c2)c2c1CCC(O)C2 (stereo not shown) [Example 2-39] | < 100 | 219 to 220 | 
